According to patent publication US8124788B2, “Spirocyclic cyclohexane compounds with analgesic activity” (Gruenenthal GmbH, priority 2006, dated 2012):

molecular target: T1, human μ opiate receptor (Homo sapiens, UniProt P35372); assay: Affinity for the human μ opiate receptor ([3H]-naloxone displacement, CHO-K1 membrane preparation, SPA); format: binding; conditions: 1 μM test substance; displacement of [3H]-naloxone
T1 construct: purchased PerkinElmer Life Sciences, Zaventem, Belgium RB-HOM; host or cells: CHO-K1 cells (recombinant expression)
Description: The receptor affinity for the human μ opiate receptor is determined in a homogeneous set-up in microtitre plates. For this purpose, dilution series of the substances to be tested are incubated with a receptor membrane preparation (15-40 μg of protein/250 μl of incubation batch) of CHO-K1 cells which express the human μ opiate receptor (RB-HOM receptor membrane preparation from PerkinElmer Life Sciences, Zaventem, Belgium) in the presence of 1 nmol/l of the radioactive ligand [^3H]-naloxone (NET719, PerkinElmer Life Sciences, Zaventem, Belgium) and 1 mg of WGA-SPA-Beads (wheat germ agglutinin SPA beads from Amersham/Pharmacia, Freiburg, Germany) in a total volume of 250 μl for 90 minutes at room temperature. 50 mmol/l of Tris-HCl supplemented with 0.06% of bovine serum albumin are used as the incubation buffer. 100 μmol/l of naloxone are additionally added for determination of the non-specific binding. After the end of the ninety-minute incubation time, the microtitre plates are centrifuged for 20 minutes at 1,000 g and the radioactivity is measured in a β-counter (Microbeta-Trilum, PerkinElmer Wallac, Freiburg, Germany). The percentage displacement of the radioactive ligand from its binding to the human μ opiate receptor is determined at a concentration of the test substances of 1 μmol/l and stated as the percentage inhibition of the specific binding. Starting from the percentage displacement by various concentrations of the test substances, IC50 inhibitory concentrations which cause a 50 percent displacement of the radioactive ligand are calculated. By conversion by means of the Cheng-Prusoff relationship, Ki values for the test substances are obtained.

T1 sequence (P35372 whole entry): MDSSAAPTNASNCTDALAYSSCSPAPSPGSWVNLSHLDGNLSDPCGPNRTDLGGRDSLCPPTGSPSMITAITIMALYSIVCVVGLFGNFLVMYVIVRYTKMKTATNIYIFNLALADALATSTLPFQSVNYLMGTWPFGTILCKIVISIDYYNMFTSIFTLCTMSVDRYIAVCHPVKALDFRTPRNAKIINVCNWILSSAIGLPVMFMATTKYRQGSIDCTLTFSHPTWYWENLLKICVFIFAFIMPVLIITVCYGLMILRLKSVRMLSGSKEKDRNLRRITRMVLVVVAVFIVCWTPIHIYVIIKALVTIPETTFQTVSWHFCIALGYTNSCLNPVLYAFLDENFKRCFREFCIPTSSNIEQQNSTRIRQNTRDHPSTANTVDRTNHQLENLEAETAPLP

Point of comparison: `CC1Cc2c([nH]c3ccc(F)cc23)C2(CCC(C(c3ccc(Cl)cc3)N(C)C)CC2)O1` (stereo not drawn) [Compound 55, 6-Fluoro-3-methyl-1,1-[3-(dimethylamino-(4-chlorophenyl) -methyl)-penta-methylene]-1,3,4,9-tetrahydropyrano[3,4-b]indole], “μ opioid receptor [1 μM], % inhibition” value 58%. Against it:
- Cc1ccc2[nH]c3c(c2c1)CC(C)OC31CCC(C(CCc2ccccc2)N(C)C)CC1 (stereo not drawn) [Compound 43, 3,6-Dimethyl-1,1-[3-(dimethylamino-(phenylethyl)-methyl)-pentamethylene]-1,3,4,9-tetrahydropyrano[3,4-b]indole] — lower, 42%

same assay, conditions: 1 μM test substance; displacement of [3H]-naloxone; read-out: μ opioid receptor [1 μM], % inhibition

`CN(C)C(c1cccc(F)c1)C1CCC2(CC1)OCCc1c2[nH]c2ccc(F)cc12` (stereo not drawn) [Compound 36, 6-Fluoro-1,1-[3-(dimethylamino-(3-fluorophenyl)-methyl)-pentamethylene]-1,3,4,9-tetrahydropyrano[3,4-b]indole] showed an inhibition at 1 µM of 102%.

same assay, conditions: Cheng-Prusoff conversion from IC50; read-out: μ opioid receptor, Ki

In the case of `CN(C)C(c1cccc(F)c1)C1CCC2(CC1)OCCc1c2[nH]c2ccc(F)cc12` (stereo not drawn) [Compound 36, 6-Fluoro-1,1-[3-(dimethylamino-(3-fluorophenyl)-methyl)-pentamethylene]-1,3,4,9-tetrahydropyrano[3,4-b]indole], the Ki is reported as 46 nM.

same assay, conditions: compounds prepared via automated synthesis; single measurements at a test concentration of 1 μM

Point of comparison: `CC(C)C(=O)N1CCc2c([nH]c3ccccc23)C12CCC(C(c1ccccc1)N(C)C)CC2` (stereo not drawn) [Compound 101, 2-isobutyryl-{1,1-[3-(dimethylamino-phenylmethyl) -pentamethylene]-3,4-dihydro-1H-2,9-diazafluorene}], “μ opioid receptor [1 μmol], % inhibition” value 74%. Against it:
- COc1cccc(CC(=O)N2CCc3c([nH]c4ccccc34)C23CCC(C(c2ccccc2)N(C)C)CC3)c1 (stereo not drawn) [Compound 136, 2-[(3-methoxyphenyl)acetyl]-{1,1-[3-(dimethylamino-phenylmethyl)-pentamethylene]-3,4-dihydro-1H-2,9-diazafluorene}] — higher, 75%
- CC(CC(=O)N1CCc2c([nH]c3ccccc23)C12CCC(C(c1ccc(F)cc1)N(C)C)CC2)c1ccccc1 (stereo not drawn) [Compound 142, 1-{1,1-[3-(dimethylamino-(4-fluorophenyl)methyl) -pentamethylene]-3,4-dihydro-1H-2,9-diazafluoren-2-yl}-3-phenylbutan-1-one] — lower, 30%
- CN(C)C(c1ccccc1)C1CCC2(CC1)c1[nH]c3ccccc3c1CCN2C(=O)COCc1ccccc1 (stereo not drawn) [Compound 83, 2-(benzyloxyacetyl)-{1,1-[3-(dimethylamino-phenylmethyl) -pentamethylene]-3,4-dihydro-1H-2,9-diazafluorene}] — lower, 50%
- CN(C)C(c1cccc(F)c1)C1CCC2(CC1)c1[nH]c3ccccc3c1CCN2C(=O)C=Cc1ccccc1Cl (stereo not drawn) [Compound 72, 1-{1,1-[3-(dimethylamino-(3-fluorophenyl)methyl) -pentamethylene]-3,4-dihydro-1H-2,9-diazafluoren-2-yl}-3-(2-chlorophenyl)prop-2-en-1-one] — lower, 24%
- CC(C)CC(=O)N1CCc2c([nH]c3ccccc23)C12CCC(C(c1ccc(Cl)cc1)N(C)C)CC2 (stereo not drawn) [Compound 134, 1-{1,1-[3-(dimethylamino-(4-chlorophenyl)methyl) -pentamethylene]-3,4-dihydro-1H-2,9-diazafluoren-2-yl}-3-methylbutan-1-one] — lower, 47%
- Cc1ccc2sc(C(=O)N3CCc4c([nH]c5ccccc45)C34CCC(C(c3cccc(F)c3)N(C)C)CC4)cc2c1 (stereo not drawn) [Compound 128, 2-[5-methylbenzothien-2-ylcarbonyl]-{1,1-[3-(dimethylamino-(3-fluorophenyl)methyl)-pentamethylene]-3,4-dihydro-1H-2,9-diazafluorene}] — lower, 16%
- CN(C)C(c1ccc(Cl)cc1)C1CCC2(CC1)c1[nH]c3ccccc3c1CCN2C(=O)COc1ccc(Cl)cc1 (stereo not drawn) [Compound 77, 2-[(4-chlorophenoxy)acetyl]-{1,1-[3-(dimethylamino-(4-chlorophenyl)-methyl)-pentamethylene]-3,4-dihydro-1H-2,9-diazafluorene}] — lower, 17%
- CC(=O)N1CCc2c([nH]c3ccccc23)C12CCC(C(c1ccccc1)N(C)C)CC2 (stereo not drawn) [Compound 79, 2-acetyl-{1,1-[3-(dimethylamino-phenylmethyl) -pentamethylene]-3,4-dihydro-1H-2,9-diazafluorene}] — lower, 4%
- CCC(=O)N1CCc2c([nH]c3ccccc23)C12CCC(C(c1ccccc1)N(C)C)CC2 (stereo not drawn) [Compound 102, 2-propionyl-{1,1-[3-(dimethylamino-phenylmethyl) -pentamethylene]-3,4-dihydro-1H-2,9-diazafluorene}] — lower, 55%
- CC(Oc1ccccc1)C(=O)N1CCc2c([nH]c3ccccc23)C12CCC(C(c1ccc(F)cc1)N(C)C)CC2 (stereo not drawn) [Compound 141, 2-(2-phenoxypropanoyl)-{1,1-[3-(dimethylamino-(4-fluorophenyl)methyl)-pentamethylene]-3,4-dihydro-1H-2,9-diazafluorene}] — lower, 47%
- CC(=Cc1ccccc1)C(=O)N1CCc2c([nH]c3ccccc23)C12CCC(C(c1cccc(F)c1)N(C)C)CC2 (stereo not drawn) [Compound 68, 1-{1,1-[3-(dimethylamino-(3-fluorophenyl)methyl) -pentamethylene]-3,4-dihydro-1H-2,9-diazafluoren-2-yl}-2-methyl-3-phenylprop-2-en-1-one] — lower, 19%
- CN(C)C(c1ccc(Cl)cc1)C1CCC2(CC1)c1[nH]c3ccccc3c1CCN2C(=O)CCC1CCCC1 (stereo not drawn) [Compound 95, 2-(3-cyclopentylpropanoyl)-{1,1-[3-(dimethylamino-(4-chlorophenyl)-methyl)-pentamethylene]-3,4-dihydro-1H-2,9-diazafluorene}] — lower, 18%
- CN(C)C(c1ccccc1)C1CCC2(CC1)c1[nH]c3ccccc3c1CCN2C(=O)C=Cc1ccccc1 (stereo not drawn) [Compound 80, 1-{1,1-[3-(dimethylamino-phenylmethyl)-pentamethylene]-3,4-dihydro-1H-2,9-diazafluoren-2-yl}-3-phenylprop-2-en-1-one] — lower, 41%
- CN(C)C(c1ccc(Cl)cc1)C1CCC2(CC1)c1[nH]c3ccccc3c1CCN2C(=O)Cc1cccc(Br)c1 (stereo not drawn) [Compound 132, 2-[(3-bromophenyl)acetyl]-{1,1-[3-(dimethylamino-(4-chlorophenyl)-methyl)-pentamethylene]-3,4-dihydro-1H-2,9-diazafluorene}] — lower, 65%
- COc1cccc(CC(=O)N2CCc3c([nH]c4ccccc34)C23CCC(C(c2cccc(F)c2)N(C)C)CC3)c1 (stereo not drawn) [Compound 126, 2-[(3-methoxyphenyl)acetyl]-{1,1-[3-(dimethylamino-(3-fluorophenyl)methyl)-pentamethylene]-3,4-dihydro-1H-2,9-diazafluorene}] — lower, 50%
- CN(C)C(c1ccccc1)C1CCC2(CC1)c1[nH]c3ccccc3c1CCN2C(=O)C1CCCCC1 (stereo not drawn) [Compound 59, 2-(cyclohexylcarbonyl)-{1,1-[3-(dimethylamino-phenylmethyl)-pentamethylene]-3,4-dihydro-1H-2,9-diazafluorene}] — lower, 29%
- CCC(=O)N1CCc2c([nH]c3ccccc23)C12CCC(C(c1cccc(F)c1)N(C)C)CC2 (stereo not drawn) [Compound 113, 2-propionyl-{1,1-[3-(dimethylamino-(3-fluorophenyl)methyl)-pentamethylene]-3,4-dihydro-1H-2,9-diazafluorene}] — lower, 13%
- CC(C)CC(=O)N1CCc2c([nH]c3ccccc23)C12CCC(C(c1ccccc1)N(C)C)CC2 (stereo not drawn) [Compound 138, 1-{1,1-[3-(dimethylamino-phenylmethyl)-pentamethylene]-3,4-dihydro-1H-2,9-diazafluoren-2-yl}-3-methylbutan-1-one] — lower, 58%
- CN(C)C(c1ccccc1)C1CCC2(CC1)c1[nH]c3ccccc3c1CCN2C(=O)CC(C)(C)C (stereo not drawn) [Compound 56, 1-{1,1-[3-(dimethylamino-phenylmethyl)-pentamethylene]-3,4-dihydro-1H-2,9-diazafluoren-2-yl}-3,3-dimethylbutan-1-one] — lower, 36%
- CCCCC(CC)C(=O)N1CCc2c([nH]c3ccccc23)C12CCC(C(c1cccc(F)c1)N(C)C)CC2 (stereo not drawn) [Compound 111, 2-(2-ethylhexanoyl)-{1,1-[3-(dimethylamino-(3-fluorophenyl)methyl)-pentamethylene]-3,4-dihydro-1H-2,9-diazafluorene}] — lower, 13%
- CC(=O)N1CCc2c([nH]c3ccccc23)C12CCC(C(c1cccc(F)c1)N(C)C)CC2 (stereo not drawn) [Compound 89, acetyl-{1,1-[3-(dimethylamino-(3-fluorophenyl)methyl) -pentamethylene]-3,4-dihydro-1H-2,9-diazafluorene}] — lower, 10%

same assay, conditions: compounds prepared via automated synthesis; single measurements at a test concentration of 1 μM; 1 µM

With `CN(C)C(c1ccc(Cl)cc1)C1CCC2(CC1)c1[nH]c3ccccc3c1CCN2C(=O)CCc1ccccc1` (stereo not drawn) [Compound 131, 2-(3-phenylpropanoyl)-{1,1-[3-(dimethylamino-(4-chlorophenyl)methyl)-pentamethylene]-3,4-dihydro-1H-2,9-diazafluorene}] the “μ opioid receptor [1 μmol], % inhibition” value was 51%.
